{
  "source": "paper PMC7395068",
  "about": "“The evolution of strategies to minimise the risk of human drug-induced liver injury (DILI) in drug discovery and development” (Archives of Toxicology, 2020)",
  "origin": "cited, not measured here",
  "key": {"[1]": {"details": "cited from earlier work"}, "human hepatocytes": {"system": "human hepatocytes", "details": "cited from earlier work; for Structural based (HCI): In vitro Assay"}, "[2]": {"details": "cited from earlier work", "remark": "listed apart in the source"}, "[3]": {"system": "THLE or HepG2 cells, isolated mitochondria, BSEP", "details": "cited from earlier work"}, "[4]": {"details": "human hepatocyte imaging, ref Xu 2008"}, "[5]": {"details": "assignment in Xu 2008, ref Xu 2008"}},
  "note": "Structures can show the parent of a compound that is named as a salt. Where two headings read alike, the source gives them in different places.",
  "data": [
    {"molecule": "CC(COc1ccccc1)NC(C)C(O)c1ccc(O)cc1", "note": "(centres unmarked) [isoxsuprine]", "values": [
      {"measurement": "DILI +VE (5-8), DILI -VE (-4)", "setting": "[1]; in vivo", "value": "-VE"},
      {"measurement": "DILI severity category", "setting": "[1]; in vivo", "value": "vNo-DILI-Concern"},
      {"measurement": "Structural based (HCI), In vitro Assay", "setting": "human hepatocytes", "value": "-VE"},
      {"measurement": "In vivo DILI", "setting": "[2]; in vivo", "value": "-VE"}
    ]},
    {"molecule": "CCSCC[C@H](N)C(=O)O", "note": "[l-ethionine]", "values": [
      {"measurement": "Structural based (HCI), In vitro Assay", "setting": "human hepatocytes; [4]", "value": "-VE"},
      {"measurement": "In vivo DILI", "setting": "[2]; [5]", "value": "+VE"}
    ]},
    {"molecule": "CC(=O)O[C@]1(C(C)=O)CC[C@H]2[C@@H]3C[C@H](C)C4=CC(=O)CC[C@]4(C)[C@H]3CC[C@@]21C", "note": "[medroxyprogesterone acetate]", "values": [
      {"measurement": "Structural based (HCI), In vitro Assay", "setting": "human hepatocytes; [4]", "value": "-VE"},
      {"measurement": "In vivo DILI", "setting": "[2]; [5]", "value": "-VE"}
    ]},
    {"molecule": "CN1CCCCC1CCN1c2ccccc2Sc2ccc([S+](C)[O-])cc21", "note": "(centres unmarked) [mesoridazine besylate]", "values": [
      {"measurement": "Structural based (HCI), In vitro Assay", "setting": "human hepatocytes; [4]", "value": "-VE"},
      {"measurement": "In vivo DILI", "setting": "[2]; [5]", "value": "+VE"}
    ]},
    {"molecule": "CC(C)NCC(O)c1cc(O)cc(O)c1", "note": "(centres unmarked) [metaproterenol sulfate]", "values": [
      {"measurement": "Structural based (HCI)", "setting": "human hepatocytes; ref Xu 2008", "value": "-VE"},
      {"measurement": "Partition Hybrid HRM Score", "setting": "[3]; In vitro Assay, ref Aleo 2019", "value": "-VE"},
      {"measurement": "Ro2 Hybrid HRM Score", "setting": "[3]; In vitro Assay, ref Aleo 2019", "value": "-VE"}
    ]},
    {"molecule": "COc1ccc(OC)c(C(O)C(C)N)c1", "note": "(centres unmarked) [methoxamine]", "values": [
      {"measurement": "Structural based (HCI), In vitro Assay", "setting": "human hepatocytes; [4]", "value": "-VE"},
      {"measurement": "In vivo DILI", "setting": "[2]; [5]", "value": "-VE"}
    ]},
    {"molecule": "CC[C@@H](CO)NC(=O)[C@@H]1C=C2c3cccc4c3c(cn4C)C[C@H]2N(C)C1", "note": "[methysergide maleate]", "values": [
      {"measurement": "Structural based (HCI)", "setting": "human hepatocytes; ref Xu 2008", "value": "-VE"},
      {"measurement": "Partition Hybrid HRM Score", "setting": "[3]", "value": "-VE"},
      {"measurement": "Ro2 Hybrid HRM Score", "setting": "[3]", "value": "-VE"},
      {"measurement": "In vivo DILI", "setting": "[2]; ref Aleo 2019", "value": "-VE"},
      {"measurement": "In vivo DILI", "setting": "[2]; ref Xu 2008", "value": "-VE"}
    ]},
    {"molecule": "Cc1ncc([N+](=O)[O-])n1CCO", "note": "[metronidazole]", "values": [
      {"measurement": "Structural based (HCI)", "setting": "human hepatocytes; ref Xu 2008", "value": "+VE"},
      {"measurement": "Partition Hybrid HRM Score", "setting": "[3]; In vitro Assay, ref Aleo 2019", "value": "-VE"},
      {"measurement": "Ro2 Hybrid HRM Score", "setting": "[3]; In vitro Assay, ref Aleo 2019", "value": "-VE"}
    ]},
    {"molecule": "C[C@H]1C(=O)O[C@@H]2CCN3CC=C(COC(=O)[C@](C)(O)[C@]1(C)O)[C@H]23", "note": "[monocrotaline]", "values": [
      {"measurement": "Structural based (HCI), In vitro Assay", "setting": "human hepatocytes", "value": "-VE"},
      {"measurement": "In vivo DILI", "setting": "[2]; in vivo", "value": "+VE"}
    ]},
    {"molecule": "C=C1CC[C@@]2(O)[C@H]3Cc4ccc(O)c5c4[C@@]2(CCN3CC2CC2)[C@H]1O5", "note": "[nalmefene]", "values": [
      {"measurement": "Structural based (HCI), In vitro Assay", "setting": "human hepatocytes; [4]", "value": "-VE"},
      {"measurement": "In vivo DILI", "setting": "[2]; [5]", "value": "-VE"}
    ]},
    {"molecule": "CCCOc1ccc2[nH]c(NC(=O)OC)nc2c1", "note": "[oxybendazole]", "values": [
      {"measurement": "Structural based (HCI), In vitro Assay", "setting": "human hepatocytes; [4]", "value": "-VE"},
      {"measurement": "In vivo DILI", "setting": "[2]; [5]", "value": "+VE"}
    ]},
    {"molecule": "CN(C)CCCN1c2ccccc2Sc2ccccc21", "note": "[promazine]", "values": [
      {"measurement": "Structural based (HCI), In vitro Assay", "setting": "human hepatocytes; [4]", "value": "-VE"},
      {"measurement": "In vivo DILI", "setting": "[2]; [5]", "value": "-VE"}
    ]},
    {"molecule": "CN[C@@H](C)[C@@H](O)c1ccccc1", "note": "[pseudoephedrine]", "values": [
      {"measurement": "DILI +VE (5-8), DILI -VE (-4)", "setting": "[1]; in vivo", "value": "-VE"},
      {"measurement": "DILI severity category", "setting": "[1]; in vivo", "value": "vNo-DILI-Concern"},
      {"measurement": "Structural based (HCI), In vitro Assay", "setting": "human hepatocytes", "value": "-VE"},
      {"measurement": "In vivo DILI", "setting": "[2]; in vivo", "value": "-VE"}
    ]},
    {"molecule": "COc1ccc(C[C@H](N)C(=O)N[C@H]2[C@@H](O)[C@H](n3cnc4c(N(C)C)ncnc43)O[C@@H]2CO)cc1", "note": "[puromycin]", "values": [
      {"measurement": "Structural based (HCI), In vitro Assay", "setting": "human hepatocytes; [4]", "value": "+VE"},
      {"measurement": "In vivo DILI", "setting": "[2]; [5]", "value": "+VE"}
    ]},
    {"molecule": "CC1=C(/C=C/C(C)=C/C=C/C(C)=C/C(=O)O)C(C)(C)CCC1", "note": "[retinoic acid]", "values": [
      {"measurement": "Structural based (HCI)", "setting": "human hepatocytes; ref Xu 2008", "value": "+VE"},
      {"measurement": "In vivo DILI", "setting": "[2]; […]", "value": "+VE"},
      {"measurement": "In vivo DILI", "setting": "[2]; ref Xu 2008", "value": "+VE"}
    ]},
    {"molecule": "CN[C@H]1CC[C@@H](c2ccc(Cl)c(Cl)c2)c2ccccc21", "note": "[sertraline]", "values": [
      {"measurement": "DILI +VE (5-8), DILI -VE (-4)", "setting": "[1]; ref Chen 2016", "value": "+VE"},
      {"measurement": "DILI severity category", "setting": "[1]; ref Chen 2016", "value": "vLess-DILI-Concern"},
      {"measurement": "Structural based (HCI)", "setting": "human hepatocytes; ref Xu 2008", "value": "-VE"},
      {"measurement": "In vivo DILI", "setting": "[2]; […]", "value": "-VE"},
      {"measurement": "In vivo DILI", "setting": "[2]; ref Xu 2008", "value": "-VE"}
    ]},
    {"molecule": "CC(=O)S[C@@H]1CC2=CC(=O)CC[C@]2(C)[C@H]2CC[C@@]3(C)[C@@H](CC[C@@]34CCC(=O)O4)[C@H]12", "note": "[spironolactone]", "values": [
      {"measurement": "DILI +VE (5-8), DILI -VE (-4)", "setting": "[1]; ref Chen 2016", "value": "+VE"},
      {"measurement": "DILI severity category", "setting": "[1]; ref Chen 2016", "value": "vLess-DILI-Concern"},
      {"measurement": "Structural based (HCI)", "setting": "human hepatocytes; ref Xu 2008", "value": "+VE"},
      {"measurement": "In vivo DILI", "setting": "[2]; ref Xu 2008", "value": "+VE"}
    ]},
    {"molecule": "CCCCNc1ccc(C(=O)OCCN(C)C)cc1", "note": "[tetracaine]", "values": [
      {"measurement": "Structural based (HCI), In vitro Assay", "setting": "human hepatocytes; [4]", "value": "-VE"},
      {"measurement": "In vivo DILI", "setting": "[2]; [5]", "value": "-VE"}
    ]},
    {"molecule": "Nc1nc2nc[nH]c2c(=S)[nH]1", "note": "[thioguanine]", "values": [
      {"measurement": "Structural based (HCI)", "setting": "human hepatocytes; ref Xu 2008", "value": "-VE"},
      {"measurement": "Partition Hybrid HRM Score", "setting": "[3]; In vitro Assay, ref Aleo 2019", "value": "-VE"},
      {"measurement": "Ro2 Hybrid HRM Score", "setting": "[3]; In vitro Assay, ref Aleo 2019", "value": "-VE"}
    ]},
    {"molecule": "CC(C)(C)NC[C@H](O)COc1nsnc1N1CCOCC1", "note": "[timolol maleate]", "values": [
      {"measurement": "Structural based (HCI), In vitro Assay", "setting": "human hepatocytes; [4]", "value": "-VE"},
      {"measurement": "In vivo DILI", "setting": "[2]; [5]", "value": "+VE"}
    ]},
    {"molecule": "CN1C(=O)OC(C)(C)C1=O", "note": "[trimethadione]", "values": [
      {"measurement": "DILI +VE (5-8), DILI -VE (-4)", "setting": "[1]; ref Chen 2016", "value": "-VE"},
      {"measurement": "DILI severity category", "setting": "[1]; ref Chen 2016", "value": "Ambiguous DILI-concern"},
      {"measurement": "Structural based (HCI)", "setting": "human hepatocytes; ref Xu 2008", "value": "-VE"},
      {"measurement": "In vivo DILI", "setting": "[2]; ref Xu 2008", "value": "+VE"}
    ]},
    {"molecule": "C[C@H](CCC(=O)O)[C@H]1CC[C@H]2[C@@H]3[C@@H](O)C[C@@H]4C[C@H](O)CC[C@]4(C)[C@H]3CC[C@]12C", "note": "[ursodeoxycholic acid]", "values": [
      {"measurement": "DILI +VE (5-8), DILI -VE (-4)", "setting": "[1]; ref Chen 2016", "value": "-VE"},
      {"measurement": "DILI severity category", "setting": "[1]; ref Chen 2016", "value": "Ambiguous DILI-concern"},
      {"measurement": "Structural based (HCI)", "setting": "human hepatocytes; ref Xu 2008", "value": "-VE"},
      {"measurement": "In vivo DILI", "setting": "[2]; ref Xu 2008", "value": "-VE"}
    ]},
    {"molecule": "bacitracin", "values": [
      {"measurement": "DILI +VE (5-8), DILI -VE (-4)", "setting": "[1]; ref Chen 2016", "value": "-VE"},
      {"measurement": "DILI severity category", "setting": "[1]; ref Chen 2016", "value": "vNo-DILI-Concern"},
      {"measurement": "Structural based (HCI)", "setting": "human hepatocytes; ref Xu 2008", "value": "-VE"},
      {"measurement": "In vivo DILI", "setting": "[2]; ref Xu 2008", "value": "-VE"}
    ]}
  ]
}
